Results published in patent US11376308B2, “Use of FKBP-L polypeptides and nucleic acids for the treatment of obesity” (The Queen's University of Belfast, priority 2016, dated 2022).
Entries after “also recorded” stand apart in the source; their conditions may differ.

Assays:
[1] = Oral Glucose Tolerance Test (OGTT) in high fat diet fed mice given ALM201; type: in vivo
Method: An OGTT was performed by fasting the mice for 4 h, taking baseline blood glucose, administering 40% D-glucose, and recording two further blood glucose readings at 30 and 60 min.
(§1) For the high fat diet study, 40 age and sex matched mice were chosen with an age range of 6-10 weeks at the experimental start date. Mice were randomised into four groups: PBS Fkbpl^+/−, PBS Fkbpl^+/+, ALM201 Fkbpl^+/− and ALM201 Fkbpl^+/+. Power calculations were utilised to predict the number of mice needed to show statistical significance. Taking group 1 mean weight to be 25 g and group 2 mean weight to be 45 g, with a standard deviation of 13 gives a sample size of eight mice per group when powered to 0.8, with α=0.05. 10 mice per treatment group were used. All mice were weighed at experimental start date, biweekly for the first three weeks to ensure health, and weekly thereafter. Mice were solely fed a high fat diet comprising 60% fat (Cat no. F3282, Dates and, USA). Food provided was weighed biweekly for three weeks, then weekly, to ensure equal food provisions between boxes, with an allowance of 5 g per mouse per day assumed. ALM201 was reconstituted in PBS, stored at −20° C., and injected subcutaneously at a dose of 0.3 mg/kg, 5 days per week.

[2] = tested on: TIMP1; assay: Ray Biotech cytokine array on spent medium of MDA231 cells, validated by ELISA: TIMP1; type: cell-based; conditions: spent medium of MDA231 cells after exposure to ALM201
Excerpt: (§2) FIGS. 7A and 7B illustrate the level of secretion of leptin, IL8 and TIMP Secretion after treatment with FKBP-L's therapeutic peptide, ALM201—A Ray Biotech cytokine array was used to measure cytokines in the spent medium of MDA231 cells after exposure to ALM201. Blots were then quantitated by densitometric analysis using Ray Biotech software.
(§3) A Ray Biotech cytokine array was used to measure cytokines in the spent medium of MDA231 cells after exposure to ALM201. Blots were then quantitated by densitometric analysis using Ray Biotech software. IL8 and TIMP1 levels were then validated by ELISA in two or three independent repeats. A reduction in these cytokines would reduce the obesity phenotype.

[3] = High fat diet weight gain study in Fkbpl+/- and Fkbpl+/+ mice, ALM201 vs PBS; type: in vivo; conditions: ALM201 0.3 mg/kg subcutaneously 5 days per week
Excerpt: as §1

[4] = tested on: IL-8; assay: Ray Biotech cytokine array on spent medium of MDA231 cells, validated by ELISA: IL-8; type: cell-based; conditions: spent medium of MDA231 cells after exposure to ALM201
Excerpt: as §2, §3

[5] = tested on: SIRT1; assay: SIRT1 protein levels following ALM201 treatment (western blot); type: cell-based; conditions: FIG. 6D
Method: For assessing protein levels: Cell lysates were prepared in RIPA buffer from MDA-MB-231, A3, MCF-7 and D2 cells and subjected to Western Blotting. The membrane was then probed with a 1:1000 dilution of rabbit FKBP-L IgG polyclonal primary antibody (Proteintech UK, cat: 10060-1-AP), 1:1000 rabbit SIRT1 IgG monoclonal primary antibody (Abcam, UK cat: ab32441) in 3% blocking solution overnight on a rocker at 4° C. The membrane was washed with PBS-Tween and then PBS for 5 min each, and was probed for an hour with a 1:5000 dilution of ECL anti rabbit IgG HRP linked whole secondary antibody (GE Healthcare UK Ltd.) Membranes were washed and developed as in section 2.2.2.11.3. Membranes were then stripped with Restore™ Western Blot Stripping Buffer (Thermo Scientific) for 10 min, washed, re-probed with rabbit GAPDH primary antibody (Sigma-Aldrich), and a 1:5000 dilution of ECL anti rabbit IgG HRP linked whole secondary antibody (GE Healthcare UK Ltd.) and developed as above. SIRT1 was identified as a band around 110 kDa, FKBP-L at 42 kDa.

[6] = tested on: leptin; assay: Ray Biotech cytokine array on spent medium of MDA231 cells: leptin; type: cell-based; conditions: spent medium of MDA231 cells after exposure to ALM201
Excerpt: as §2, §3

[7] = tested on: NFkB; assay: LPS-induced NFkB phosphorylation in THP-1 monocytes (western blot); type: cell-based; conditions: 100 ng/ml LPS, lysates 6 hour after treatment
Method: FIG. 12 illustrates the FKBP-L peptide, AD-01 (SEQ ID NO: 10), abrogates LPS-induced activation of NFkB in THP-1 monocytes—Cells were stimulated with 100 ng of LPS which results in activation of NFkB phosphorylation.
(§4) THP1 cells were treated with 100 ng/ml LPS and cell lysates harvested and subjected to western blotting as described in Example 4, using primary antibody against pSER36 NFkB (at a 1:1000 dilution) and a 1:5000 dilution of ECL anti rabbit IgG HRP linked whole secondary antibody (GE Healthcare UK Ltd.). To measure IL-1β levels THP1 cells were treated with 1000 ng/ml LPS±AD-01 and conditioned cell culture medium was collected 24 h later and assessed using an IL-1β ELISA.

[8] = tested on: IL-1β; assay: LPS-induced IL-1β secretion in THP-1 monocytes (ELISA); type: cell-based; conditions: 1000 ng/ml LPS, conditioned medium 24 h later
Method: FIG. 13 illustrates the FKBP-L peptide, AD-01, abrogates LPS-induced activation of IL-1β in THP-1 monocytes—Cells were stimulated with 1000 ng of LPS.
as §4

Substance	blood glucose / glucose intolerance (OGTT) ([1]; Fkbpl+/- mice given ALM201 vs Fkbpl+/- mice given PBS, readings at 30 and 60 min after 40% glucose)	difference in blood glucose levels between Fkbpl+/- and Fkbpl+/+ mice (OGTT) ([1]; both genotypes administered ALM201)	secreted TIMP1 levels [2]	weight gain ([3]; Fkbpl+/- mice, 0.3 mg/kg)	weight gain ([3]; wild-type (Fkbpl+/+) mice)	secreted IL-8 levels [4]	SIRT1 protein levels [5]	secreted leptin levels [6]	LPS-induced activation of NFkB (phosphorylation) [7]	LPS-induced IL-1β secretion [8]
NH2-IRQQPRDPPTETLELEVSPDPAS-OH (H-IRQQPRDPPTETLELEVSPDPAS-OH) [ALM201]	significantly reduced; also recorded: significantly lower blood glucose readings	no significant difference	reduce	significantly reduced; also recorded: normalises the mouse weight gain; also recorded: reduces and normalises weight gain	partially prevented weight gain	reduce	increased SIRT1 levels	reduce		
NH2-QIRQQPRDPPTETLELEVSPDPAS-OH (H-QIRQQPRDPPTETLELEVSPDPAS-OH) [AD-01]									inhibit; also recorded: abrogated that increase	dramatic reduction; also recorded: significantly abrogated
